Measurements from ChEMBL document CHEMBL1201862, “PubChem BioAssay data set” (2004).
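Values below derive from 48-hour exposures of cells grown in 96-well plates, with endpoints linearly interpolated between the two concentrations bracketing the appropriate inhibition level. Here, GI50 denotes the concentration required for 50% inhibition of growth.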 Activity calls are given as the source filed them. Cut-off read from the data, not from the text of the source: active = GI50 up to about 1.1 µM and inactive = higher.

How the values were obtained:
Assay in all cases: inhibition of tumour cell growth, NCI panel, 48 h
NCI-H460 = test system: NCI-H460
ACHN = test system: ACHN
HOP-62 = test system: HOP-62
NCI-H23 = test system: NCI-H23
RXF 393 = test system: RXF 393
EKVX = test system: EKVX
SN12C = test system: SN12C
SNB-19 = test system: SNB-19
RPMI-8226 = test system: RPMI-8226
MDA-MB-231 = test system: MDA-MB-231
HCT-15 = test system: HCT-15
SF-539 = test system: SF-539
CAKI-1 = test system: CAKI-1
CCRF-CEM = test system: CCRF-CEM
SK-MEL-28 = test system: SK-MEL-28
HCC 2998 = test system: HCC 2998
K562 = test system: K562
HL-60 = test system: HL-60
HOP-92 = test system: HOP-92
HT-29 = test system: HT-29
MOLT-4 = test system: MOLT-4
Hs-578T = test system: Hs-578T
COLO 205 = test system: COLO 205
IGROV-1 = test system: IGROV-1
OVCAR-8 = test system: OVCAR-8
SW-620 = test system: SW-620
TK-10 = test system: TK-10
HCT-116 = test system: HCT-116
OVCAR-5 = test system: OVCAR-5
A498 = test system: A498
MDA-N = test system: MDA-N
SK-OV-3 = test system: SK-OV-3
SK-MEL-2 = test system: SK-MEL-2
BT-549 = test system: BT-549
NCI-H522 = test system: NCI-H522
MDA-MB-435 = test system: MDA-MB-435
KM12 = test system: KM12
LOX IMVI = test system: LOX IMVI
786-0 = test system: 786-0
NCI/ADR-RES = test system: NCI/ADR-RES
NCI-H226 = test system: NCI-H226
OVCAR-3 = test system: OVCAR-3
MCF7 = test system: MCF7
Malme-3M = test system: Malme-3M
OVCAR-4 = test system: OVCAR-4
M14 = test system: M14
SNB-75 = test system: SNB-75
UACC-257 = test system: UACC-257
SF-295 = test system: SF-295
DU-145 = test system: DU-145
T47D = test system: T47D
U-251 = test system: U-251
UACC-62 = test system: UACC-62
SF-268 = test system: SF-268
A549 = test system: A549
UO-31 = test system: UO-31
PC-3 = test system: PC-3
SK-MEL-5 = test system: SK-MEL-5

Measured: GI50

COC(=O)CC1C2(C)C3=C(C)C(c4ccoc4)CC3OC2C2OC(=O)C3(C)C=CC(=O)C1(C)C23 (stereo unspecified)
active: SN12C 859 nM | RPMI-8226 340 nM | SF-539 869 nM | CAKI-1 841 nM | CCRF-CEM 317 nM | K562 474 nM | HL-60 372 nM | HT-29 839 nM | MOLT-4 455 nM | IGROV-1 953 nM | OVCAR-8 1020 nM | HCT-116 889 nM | MDA-N 385 nM | BT-549 900 nM | NCI-H522 575 nM | MDA-MB-435 656 nM | LOX IMVI 986 nM | 786-0 869 nM | MCF7 578 nM | Malme-3M 1020 nM | DU-145 760 nM
inactive: NCI-H460 1150 nM | ACHN 1200 nM | HOP-62 3280 nM | NCI-H23 1570 nM | RXF 393 1300 nM | EKVX 1360 nM | SNB-19 2250 nM | MDA-MB-231 1220 nM | SK-MEL-28 1160 nM | HCC 2998 1410 nM | HOP-92 1820 nM | Hs-578T 3500 nM | COLO 205 1300 nM | SW-620 1330 nM | TK-10 2280 nM | OVCAR-5 2300 nM | A498 1940 nM | SK-OV-3 4110 nM | SK-MEL-2 1640 nM | KM12 1710 nM | NCI/ADR-RES 2040 nM | NCI-H226 2130 nM | OVCAR-3 1350 nM | OVCAR-4 2250 nM | M14 1320 nM | SNB-75 3010 nM | UACC-257 1950 nM | SF-295 3220 nM | T47D 1380 nM | U-251 1480 nM | UACC-62 1460 nM | SF-268 2070 nM | A549 2830 nM | UO-31 1190 nM | PC-3 1180 nM | SK-MEL-5 1600 nM
670 nM: HCT-15

C/C1=C\[C@H](C)C[C@H](C)OC(=O)[C@H](C)NC(=O)[C@@H](Cc2ccc(O)c(Br)c2)N(C)C(=O)[C@H](C)NC(=O)[C@@H](C)C1
inactive: OVCAR-5 10700 nM
982 nM: HCT-15
active: NCI-H460 7.01 nM | ACHN 32.6 nM | HOP-62 13.9 nM | NCI-H23 462 nM | RXF 393 65.6 nM | EKVX 65.2 nM | SN12C 401 nM | SNB-19 184 nM | RPMI-8226 29.5 nM | MDA-MB-231 21.1 nM | SF-539 53 nM | CAKI-1 14.9 nM | CCRF-CEM 12.4 nM | SK-MEL-28 6.59 nM | HCC 2998 4.08 nM | K562 83.6 nM | HL-60 4.47 nM | HOP-92 53.3 nM | HT-29 7.83 nM | MOLT-4 300 nM | Hs-578T 94 nM | COLO 205 7.28 nM | IGROV-1 15.2 nM | OVCAR-8 147 nM | SW-620 3.85 nM | TK-10 72.4 nM | HCT-116 3.82 nM | A498 14.9 nM | MDA-N 98.2 nM | SK-OV-3 49.5 nM | SK-MEL-2 50.2 nM | BT-549 132 nM | NCI-H522 14.9 nM | MDA-MB-435 73.5 nM | KM12 731 nM | LOX IMVI 5.33 nM | 786-0 7.52 nM | NCI/ADR-RES 126 nM | NCI-H226 50.5 nM | OVCAR-3 17.9 nM | MCF7 47.9 nM | Malme-3M 70.8 nM | OVCAR-4 63.1 nM | M14 118 nM | SNB-75 18.4 nM | UACC-257 92.7 nM | SF-295 57.8 nM | DU-145 155 nM | T47D 282 nM | U-251 9.91 nM | UACC-62 146 nM | SF-268 33.1 nM | A549 64.6 nM | UO-31 53.8 nM | PC-3 33.5 nM | SK-MEL-5 12.7 nM
